Results as given in US10758527B2, “Opioid agonist antagonist combinations” (Alkermes Pharma Ireland Limited, priority 2011, dated 2020).

Key:
[1] = tested on: dopamine efflux in the Nucleus Accumbens shell (NAc-sh); experiment: In vivo microdialysis of dopamine efflux in free-moving rats; conditions: antagonist given with Buprenorphine (0.1 mg/kg, SC)
Experimental: Experiments were conducted in rats to assess the ability of opioid antagonists to modulate buprenorphine-induced dopamine efflux in the Nucleus Accumbens shell (NAc-sh) region of the mesolimbic region of the brain. Male rats weighing 300-400 grams were used for all studies. To measure the efflux of dopamine in the NAc-sh an in vivo microdialysis method was utilized in free-moving rats. This method allows the sampling of extracellular cerebrospinal fluid (C SF) from specific brain regions of interest and measurement of neurotransmitter concentrations following the analysis of sampled dialysate with HPLC-EC.
Each rat underwent surgical implantation of microdialysis guide cannula (CMA 12, CMA Microdialysis) to guide the insertion of the microdialysis probe later on. Rats were anesthetized with a mixture of ketamine/xylazine (80/6 mg/kg IP) and placed in a stereotaxic apparatus. […] Guide cannula were capped with dummy probes until microdialysis probe insertion. On the day prior to experimentation (3-4 days post-surgery), animals were weighed to determine appropriate dose for test articles. A microdialysis probe (CMA 12, 2 mm membrane, CMA microdialysis) was then inserted through the guide cannula. […] Each sample was analyzed via HPLC-EC to determine neurotransmitter concentration of dopamine based upon a six-point standard curve.

Wistar-Kyoto (WKY) rats = experiment: Forced swim test (FST); conditions: WKY rats treated with Buprenorphine (0.1 mg/kg)
Experimental: In the “forced swim test” (FST) rats are placed in a tank of water, from which they cannot escape, on two successive days; 15 minutes on the first day and 5 minutes on the second day. While in the water they will swim, attempt to climb the container wall or become “immobile” floating in the water. The total time rats are immobility increases between the first and second day. […] At 24 h after the first swim, rats were retested for 5 minutes. Videos were scored manually for immobility time (in seconds) using a manual stop watch in 60 second intervals by a rater blinded to the treatment groups. A rat was judged to be immobile if it was making only movements necessary to keep its head above water.

Structure (SMILES)	effect on buprenorphine-induced NAc-sh dopamine efflux [1]	immobility in forced swim test with increased concentrations of Compound-1 (Wistar-Kyoto (WKY) rats)
NC(=O)c1ccc2c(c1O)[C@]13CCN(CC4CC4)[C@H](C2)[C@]1(O)CCC(=O)C3 [Compound-1]	Reduction in the efflux of dopamine	Increase in immobility
C=C1CC[C@@]2(O)[C@H]3Cc4ccc(C(N)=O)c(O)c4[C@@]2(CCN3CC2CC2)C1 [Compound-10]	Reduction in the efflux of dopamine	
C=C1CC[C@@]2(O)[C@H]3Cc4ccc(O)c5c4[C@@]2(CCN3CC2CC2)[C@H]1O5 [Nalmefene, nalmefene, reference compound]	Reduction in the efflux of dopamine	
O=C1CC[C@@]2(O)[C@H]3Cc4ccc(O)c5c4[C@@]2(CCN3CC2CC2)[C@H]1O5 [Naltrexone, naltrexone, reference compound]	Reduction in the efflux of dopamine	
